Target: HIF PHD2 (Homo sapiens, UniProt Q9GZT9)
Assay: PHD2 inhibition assay (TR-FRET, VCB-Eu detection of hydroxylated P564-HIF1α peptide)
Format: biochemical
Settings: 2 nM PHD2, 100 nM P564-HIF1α peptide, 0.25 μM 2-oxoglutarate, 100 μM FeCl2, 2 mM ascorbic acid, pH 6
Protocol: Inhibition of HIF PHD2 activity was quantified utilizing the TR-FRET technology. HIF PHD2 catalyzes a hydroxyl modification on the proline residue of the P564-HIF1α peptide substrate (Biotin-[…] (SEQ ID NO: 7)) resulting in recognition and binding of the europylated Von Hippel-Lindau protein (pVHL), elongin B and elongin C heterotrimeric (VCB-Eu) complex.
The PHD2 inhibition assay was executed by addition of freshly dissolved FeCl2 to 178.57 μM (100 μM final concentration) in PHD2 Reaction Buffer containing 30 mM MES, pH 6, 10 mM NaCl, 0.25% Brij-35, 0.01% BSA, and 1% DMSO. 28 μL of the iron solution and 2 μL of inhibitor compounds serially diluted in 100% DMSO (5% DMSO final) were added to black polypropylene 96-well microtiter plates. To that, 10 μL of 10 nM PHD2 (2 nM final) was added to all wells of the plate except for the 8 wells of column 12 (LO control), and allowed to incubate at room temperature on the shaker for one hour. Column 6 was the HI control containing PHD2 enzyme and 5% DMSO vehicle, but no inhibitor compound. To initiate the PHD2 enzymatic reaction, 10 μL of a solution containing 500 nM P564-HIF1α peptide (100 nM final), 10 mM ascorbic acid (2 mM final), and 1.25 μM 2-oxoglutarate (α-ketoglutarate; 0.25 μM final) in PHD2 Reaction Buffer was added to all wells of the plate and allowed to incubate on the shaker at room temperature for one hour.
The reaction was terminated by addition of 25 μL TR-FRET Buffer (50 mM TRIS-HCl, pH 9, 100 mM NaCl, 0.05% BSA, and 0.5% Tween-20) containing 150 mM succinate (product inhibitor; 50 mM final), 75 nM streptavidin-APC (25 nM final), and 7.5 nM VCB-Eu (2.5 nM final). The TR-FRET detection reagents were placed on a shaker for 1 hour to reach binding equilibrium before reading on the Discovery platform (PerkinElmer). Europium is excited at 315 nm and phosphoresces at 615 nm with a large Stoke's shift. APC, in turn, emits at 655 nm upon excitation at 615 nm. The TR-FRET signal is measured as the ratio of the APC 655 nm signal divided by the internal europium reference 615 nm emission signal.
The POC (percentage of control) was determined by comparing the signal from hydroxylated peptide substrate in the enzyme reaction containing inhibitor compound with that from PHD2 enzyme with DMSO vehicle alone (HI control), and no enzyme (LO control). POC was calculated using the formula: % control (POC)=(cpd−average LO)/(average HI−average LO)*100. Data (consisting of POC and inhibitor concentration in μM) was fitted to a 4-parameter equation (y=A+((B−A)/(1+((x/C)^D))), where A is the minimum y (POC) value, B is the maximum y (POC), C is the x (cpd concentration) at the point of inflection and D is the slope factor) using a Levenburg-Marquardt non-linear regression algorithm.

HIF PHD2, sequence (Q9GZT9 whole entry): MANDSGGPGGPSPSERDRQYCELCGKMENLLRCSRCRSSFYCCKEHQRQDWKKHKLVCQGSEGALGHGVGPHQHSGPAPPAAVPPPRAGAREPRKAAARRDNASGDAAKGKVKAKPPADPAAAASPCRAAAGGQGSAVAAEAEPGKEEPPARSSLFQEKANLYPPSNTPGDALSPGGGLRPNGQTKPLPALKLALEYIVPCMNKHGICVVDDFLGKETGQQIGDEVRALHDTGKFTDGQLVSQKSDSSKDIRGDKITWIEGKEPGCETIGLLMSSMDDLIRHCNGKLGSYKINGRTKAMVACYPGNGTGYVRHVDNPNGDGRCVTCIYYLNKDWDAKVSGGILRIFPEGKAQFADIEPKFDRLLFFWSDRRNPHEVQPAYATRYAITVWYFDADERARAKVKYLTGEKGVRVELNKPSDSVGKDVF

For `Cc1ccc(S(=O)(=O)n2cc(-c3ncc4c(O)c(C(=O)NCC(=O)O)c(=O)n(C)c4n3)c3ccccc32)cc1` [Example 58, 2-(5-hydroxy-8-methyl-7-oxo-2-(1-tosyl-1H-indol-3-yl)-7,8-dihydropyrido[2,3-d]pyrimidine-6-carboxamido)acetic acid], the IC50 was 42 nM.

Source: patent publication US8097620B2, “Diazaquinolones that inhibit prolyl hydroxylase activity” (Amgen Inc., priority 2007, dated 2012)
